Test results as given in PubChem BioAssay (NCI).
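Tested at 5 concentrations; 48 h exposure; 96-well plates; endpoints linearly interpolated, else capped at highest concentration. GI50 = concentration required for 50% inhibition of growth. TGI: total growth inhibition.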

Tests used:
Assay in all cases: NCI-60 cell line screen, 48 h
NCI-H460 lung = system: NCI-H460 lung
MOLT-4 leukemia = system: MOLT-4 leukemia
HCT-15 colon = system: HCT-15 colon
HOP-92 NSCLC = system: HOP-92 NSCLC
RPMI-8226 leukemia = system: RPMI-8226 leukemia
OVCAR-8 ovarian = system: OVCAR-8 ovarian
NCI-H23 lung = system: NCI-H23 lung
LOX IMVI melanoma = system: LOX IMVI melanoma
K-562 leukemia = system: K-562 leukemia
OVCAR-3 ovarian = system: OVCAR-3 ovarian
HCT-116 colon = system: HCT-116 colon
M14 melanoma = system: M14 melanoma
OVCAR-5 ovarian = system: OVCAR-5 ovarian
A498 renal = system: A498 renal
SK-MEL-28 melanoma = system: SK-MEL-28 melanoma
A549 NSCLC = system: A549 NSCLC
PC-3 prostate = system: PC-3 prostate
OVCAR-4 ovarian = system: OVCAR-4 ovarian
EKVX NSCLC = system: EKVX NSCLC
IGROV1 ovarian = system: IGROV1 ovarian
HL-60(TB) leukemia = system: HL-60(TB) leukemia
UACC-62 melanoma = system: UACC-62 melanoma
NCI-H522 lung = system: NCI-H522 lung
SK-OV-3 ovarian = system: SK-OV-3 ovarian
MDA-MB-231 breast = system: MDA-MB-231 breast
HT29 colon = system: HT29 colon
SF-295 CNS = system: SF-295 CNS
SK-MEL-2 melanoma = system: SK-MEL-2 melanoma
SW-620 colon = system: SW-620 colon
UACC-257 melanoma = system: UACC-257 melanoma
T-47D breast = system: T-47D breast
CAKI-1 renal = system: CAKI-1 renal
HCC-2998 colon = system: HCC-2998 colon
SR leukemia = system: SR leukemia
ACHN renal = system: ACHN renal
UO-31 renal = system: UO-31 renal
SNB-19 CNS = system: SNB-19 CNS
TK-10 renal = system: TK-10 renal
KM12 colon = system: KM12 colon
NCI-H226 lung = system: NCI-H226 lung
MCF7 breast = system: MCF7 breast
CCRF-CEM leukemia = system: CCRF-CEM leukemia
SNB-75 CNS = system: SNB-75 CNS
786-0 renal = system: 786-0 renal
HOP-62 NSCLC = system: HOP-62 NSCLC
DU-145 prostate = system: DU-145 prostate
U251 CNS = system: U251 CNS
SF-539 CNS = system: SF-539 CNS
COLO 205 colon = system: COLO 205 colon
MALME-3M melanoma = system: MALME-3M melanoma
NCI/ADR-RES ovarian = system: NCI/ADR-RES ovarian
SF-268 CNS = system: SF-268 CNS
MDA-MB-435 = system: MDA-MB-435
SN12C renal = system: SN12C renal
HS 578T breast = system: HS 578T breast
SK-MEL-5 melanoma = system: SK-MEL-5 melanoma
BT-549 breast = system: BT-549 breast

`COC(=O)[C@@H](C)C[C@H](Cc1ccccc1)NC(=O)c1nc([C@@H](C[C@H](C(C)C)N(C)C(=O)[C@@H](NC(=O)[C@H]2CC(=O)CCN2C)C(C)C)OC(C)=O)sc1C(C)C` showed a GI50 (NCI-H460 lung) of 0.27 µM, a TGI (NCI-H460 lung) greater than 5.85 µM and a GI50 (MOLT-4 leukemia) of 0.532 µM. For the same compound, the TGI (MOLT-4 leukemia) was greater than 16.7 µM, the GI50 (HCT-15 colon) was 0.524 µM and the TGI (HCT-15 colon) was greater than 16.7 µM. It also gave a GI50 (HOP-92 NSCLC) of 0.119 µM, a TGI (HOP-92 NSCLC) greater than 16.7 µM and a GI50 (RPMI-8226 leukemia) of 0.056 µM. For the same compound, the TGI (RPMI-8226 leukemia) was 4.38 µM, the GI50 (OVCAR-8 ovarian) was 0.48 µM and the TGI (OVCAR-8 ovarian) was greater than 16.7 µM. It also gave a GI50 (NCI-H23 lung) of 0.456 µM, a TGI (NCI-H23 lung) greater than 16.7 µM and a GI50 (LOX IMVI melanoma) of 0.11 µM. For the same compound, the TGI (LOX IMVI melanoma) was greater than 16.7 µM, the GI50 (K-562 leukemia) was 0.0684 µM and the TGI (K-562 leukemia) was greater than 16.7 µM. The GI50 (OVCAR-3 ovarian) was 0.0542 µM, the TGI (OVCAR-3 ovarian) was 0.62 µM and the GI50 (HCT-116 colon) was 0.169 µM. For the same compound, the TGI (HCT-116 colon) was 3.04 µM, the GI50 (M14 melanoma) was 0.217 µM and the TGI (M14 melanoma) was 1.18 µM. It also gave a GI50 (OVCAR-5 ovarian) of 0.617 µM, a TGI (OVCAR-5 ovarian) greater than 16.7 µM and a GI50 (A498 renal) of 0.0826 µM. The TGI (A498 renal) was 0.818 µM, the GI50 (SK-MEL-28 melanoma) was 0.524 µM and the TGI (SK-MEL-28 melanoma) was greater than 16.7 µM. For the same compound, the GI50 (A549 NSCLC) was 0.775 µM, the TGI (A549 NSCLC) was greater than 16.7 µM and the GI50 (PC-3 prostate) was 0.129 µM. It also gave a TGI (PC-3 prostate) greater than 16.7 µM, a GI50 (OVCAR-4 ovarian) of 1.34 µM and a TGI (OVCAR-4 ovarian) greater than 16.7 µM. For the same compound, the GI50 (EKVX NSCLC) was 0.953 µM, the TGI (EKVX NSCLC) was greater than 16.7 µM and the GI50 (IGROV1 ovarian) was 0.111 µM. The TGI (IGROV1 ovarian) was greater than 13.5 µM, the GI50 (HL-60(TB) leukemia) was 0.0529 µM and the TGI (HL-60(TB) leukemia) was 0.227 µM. It also gave a GI50 (UACC-62 melanoma) of 0.0722 µM, a TGI (UACC-62 melanoma) greater than 16.7 µM and a GI50 (NCI-H522 lung) of 0.0549 µM. It also gave a GI50 (SK-OV-3 ovarian) of 0.809 µM, a TGI (SK-OV-3 ovarian) greater than 16.7 µM and a GI50 (MDA-MB-231 breast) of 0.373 µM. The TGI (MDA-MB-231 breast) was 3.28 µM, the GI50 (HT29 colon) was 0.146 µM and the TGI (HT29 colon) was greater than 6.97 µM. The GI50 (SF-295 CNS) was 0.277 µM, the TGI (SF-295 CNS) was 3.02 µM and the GI50 (SK-MEL-2 melanoma) was 0.104 µM. The TGI (SK-MEL-2 melanoma) was greater than 16.7 µM, the GI50 (SW-620 colon) was 0.141 µM and the TGI (SW-620 colon) was greater than 16.7 µM. For the same compound, the GI50 (UACC-257 melanoma) was greater than 10.8 µM, the TGI (UACC-257 melanoma) was greater than 16.7 µM and the GI50 (T-47D breast) was 0.08 µM. The TGI (T-47D breast) was greater than 16.7 µM, the GI50 (CAKI-1 renal) was 0.499 µM and the TGI (CAKI-1 renal) was greater than 16.7 µM. For the same compound, the GI50 (HCC-2998 colon) was 0.141 µM, the TGI (HCC-2998 colon) was greater than 16 µM and the GI50 (SR leukemia) was 0.021 µM. For the same compound, the TGI (SR leukemia) was greater than 16.7 µM, the GI50 (ACHN renal) was 0.794 µM and the TGI (ACHN renal) was greater than 16.7 µM. It also gave a GI50 (UO-31 renal) of 0.951 µM, a TGI (UO-31 renal) greater than 10.5 µM and a GI50 (SNB-19 CNS) of 0.183 µM. For the same compound, the TGI (SNB-19 CNS) was greater than 16.7 µM, the GI50 (TK-10 renal) was 1.43 µM and the TGI (TK-10 renal) was greater than 16.7 µM. For the same compound, the GI50 (KM12 colon) was 0.132 µM, the TGI (KM12 colon) was greater than 6.76 µM and the GI50 (NCI-H226 lung) was 0.415 µM. The TGI (NCI-H226 lung) was 2.95 µM, the GI50 (MCF7 breast) was 0.0427 µM and the TGI (MCF7 breast) was greater than 16.7 µM. It also gave a GI50 (CCRF-CEM leukemia) of 0.37 µM, a TGI (CCRF-CEM leukemia) greater than 16.7 µM and a GI50 (SNB-75 CNS) of 0.0518 µM. The TGI (SNB-75 CNS) was greater than 15 µM, the GI50 (786-0 renal) was 0.347 µM and the TGI (786-0 renal) was 8.82 µM. The GI50 (HOP-62 NSCLC) was 0.694 µM, the TGI (HOP-62 NSCLC) was greater than 16.7 µM and the GI50 (DU-145 prostate) was 0.115 µM. For the same compound, the TGI (DU-145 prostate) was greater than 5.55 µM, the GI50 (U251 CNS) was 0.352 µM and the TGI (U251 CNS) was greater than 10.5 µM. The GI50 (SF-539 CNS) was 0.345 µM, the TGI (SF-539 CNS) was 0.967 µM and the GI50 (COLO 205 colon) was 0.208 µM. For the same compound, the TGI (COLO 205 colon) was 1.69 µM, the GI50 (MALME-3M melanoma) was 0.119 µM and the TGI (MALME-3M melanoma) was greater than 16.7 µM. For the same compound, the GI50 (NCI/ADR-RES ovarian) was 4.11 µM, the TGI (NCI/ADR-RES ovarian) was greater than 16.7 µM and the GI50 (SF-268 CNS) was 0.531 µM. The TGI (SF-268 CNS) was greater than 16.7 µM, the GI50 (MDA-MB-435) was 0.0169 µM and the TGI (MDA-MB-435) was 0.0921 µM. For the same compound, the GI50 (SN12C renal) was 0.462 µM, the TGI (SN12C renal) was greater than 16.7 µM and the GI50 (HS 578T breast) was 0.16 µM. The TGI (HS 578T breast) was greater than 3.85 µM, the GI50 (SK-MEL-5 melanoma) was 0.0869 µM and the TGI (SK-MEL-5 melanoma) was 1.76 µM. It also gave a GI50 (BT-549 breast) of 0.0971 µM and a TGI (BT-549 breast) of 2.7 µM.
